Reference: US11999732B2, “P2X3 receptor antagonists” (RECORDATI INDUSTRIA CHIMICA E FARMACEUTICA SPA, priority 2018, dated 2024)
Read-outs that look alike come from different tables or passages of the source.

Biological target: T1, human P2X3 receptor (Homo sapiens, UniProt P56373)
T1 construct: expressed in transfected cells; host or cells: CHO-K1
T1 sequence (P56373 1-397): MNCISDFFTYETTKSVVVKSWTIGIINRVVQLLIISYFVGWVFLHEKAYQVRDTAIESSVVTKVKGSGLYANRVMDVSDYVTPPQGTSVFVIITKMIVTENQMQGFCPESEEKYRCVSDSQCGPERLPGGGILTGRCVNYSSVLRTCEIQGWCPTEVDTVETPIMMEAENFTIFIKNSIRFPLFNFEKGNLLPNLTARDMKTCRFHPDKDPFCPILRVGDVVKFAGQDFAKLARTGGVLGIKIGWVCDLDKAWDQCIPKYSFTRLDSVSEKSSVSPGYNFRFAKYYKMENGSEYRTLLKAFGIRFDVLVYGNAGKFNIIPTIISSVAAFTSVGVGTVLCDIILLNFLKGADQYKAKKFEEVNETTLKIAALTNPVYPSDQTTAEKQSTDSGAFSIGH
Assay: Calcium luminescence (photoprotein) assay in CHO-K1 cells co-expressing human P2X3 receptor, α,β-Met-ATP stimulation, FLEXSTATION readout
Format: cell-based
Conditions: human P2X3 receptor antagonist activity, CHO-K1 cells, α,β-Met-ATP, read-out: h-P2X3 IC50
Procedure: The assay for the human purinergic P2X3 receptor has been adapted to the internal screening instrumentation using the FLEXSTATION as reader and a photoprotein as luminescent readout. The assay consists of CHO-K1 cells recombinantly co-expressing the human P2rx3 receptor and a Ca^2+ sensitive photoprotein. Cells are maintained in DMEM F-12 (1:1) mixture (LONZA cat. no BE04-687F/U1) supplemented with 9 mL of 100 mM Sodium Pyruvate (LONZA cat. no BE13-115E), 29 mL of 7.5% Sodium Bicarbonate (LONZA cat. no: BE17-613E), 5.5 mL of 1 M Hepes (LONZA cat. no BE17-737E), 5 mL of 100× Penicillin/Streptomycin (LONZA cat. no DE17-602E) and 50 mL of Fetal Bovine Serum (Sigma cat. no F7524), 1 mg/mL G418 (Sigma cat. no G8168) and 5 µg/ml puromycin (Sigma cat. no P9620). Standard propagation conditions consist of seeding in a P75 flask twice a week, recovering about 20×10^6 cells, corresponding to about 80% confluency. Cells were seeded into black-walled clear bottom 96 well plates at a density of 40000 cells/well in a Tyrode's buffer (Standard Tyrode's buffer: in house solution, 130 mM NaCl, 5 mM KCl, 2 mM CaCl2, 5 mM NaHCO3, 1 mM MgCl2, 20 mM HEPES, pH 7.4). After 24 h the culture medium was replaced with 200 μL/well of coelenterazine in Tyrode's buffer (Coelenterazine: from BIOSYNTH (cat. no C-7001). 10 mM stock solution was prepared in DMSO and glutathione and stored at −20° C.). The plates were incubated for 4 hours at 37° C., and injected with 10 μL/well of test compounds at 25× concentration in Tyrode's buffer. After 4 minutes a second injection of 50 μL/well of 5× α,β-Met-ATP in Tyrode's buffer (α,β-Met-ATP: from Tocris (cat. no 3209), was dissolved at 100 mM in water and stored in aliquots at −20° C.) was performed and the signal of the emitted luminescence was recorded by FLEXSTATION III (Molecular Devices).
The inhibition curves of the tested compounds at cloned P2X3 receptor were determined by nonlinear regression analysis using software Prism 4.0 (Graphpad, San Diego, Calif.). The IC50 values and pseudo-Hill slope coefficients were estimated by the program.

Compound	IC50 (Table 6) [µM]	IC50 (Table 7) [µM]	further results
O=C1N2CC3(CCOCC3)N=C2c2ncc(N3CCOCC3)cc2N1Cc1ccc(Cl)cc1 [Example 40, 6-(4-chlorobenzyl)-8-(morpholin-4-yl)-2′,3′,5′,6′-tetrahydrospiro[imidazo[1,2-c]pyrido[2,3-e]pyrimidine-2,4′-pyran]-5(6H)-one]	1.05		
CCC1CCN2C(=O)N(Cc3ccc(Cl)cc3)c3cc(N4CCOCC4)cnc3C2=N1 (stereo not shown) [Example 154, 5-(4-chlorobenzyl)-10-ethyl-3-(morpholin-4-yl)-5,8,9,10-tetrahydro-6H-pyrido[2,3-e]pyrimido[1,2-c]pyrimidin-6-one]			IC50 (Table 9): 1.05 µM
COc1cc(CN2C(=O)N3CC(C)(C)CN=C3c3ncc(N4CCOCC4)cc32)cc(OC)c1 [Example 147, 5-(3,5-dimethoxybenzyl)-9,9-dimethyl-3-(morpholin-4-yl)-5,8,9,10-tetrahydro-6H-pyrido[2,3-e]pyrimido[1,2-c]pyrimidin-6-one]			IC50 (Table 9): 2.44 µM
COc1ccc(CN2C(=O)N3CC(C(C)C)N=C3c3ncc(N4CCC(N(C)C)CC4)cc32)cc1 (stereo not shown) [Example 21, 8-[4-(dimethylamino)piperidin-1-yl]-6-(4-methoxybenzyl)-2-(propan-2-yl)-2,6-dihydroimidazo[1,2-c]pyrido[2,3-e]pyrimidin-5(3H)-one]	7.19		
Cc1ccc(Cc2nn3c(CC4CCCCC4)nnc3c3ncccc23)cc1 [Example 136, 3-(cyclohexylmethyl)-6-(4-methylbenzyl)pyrido[2,3-d][1,2,4]triazolo[4,3-b]pyridazine]			IC50 (Table 8): 1.79 µM
CC(c1nnc2c3ncc(N4CCOCC4)cc3c(Cc3ccc(Cl)cc3)nn12)C1CCOCC1 (stereo not shown) [Example 132, 6-(4-chlorobenzyl)-8-(morpholin-4-yl)-3-[1-(tetrahydro-2H-pyran-4-yl)ethyl]pyrido[2,3-d][1,2,4]triazolo[4,3-b]pyridazine]			IC50 (Table 8): 0.0191 µM
CC(C)c1nnc2c3ncc(N4CCC(O)CC4)cc3n(Cc3ccc(Cl)cc3)c(=O)n12 [Example 171, 6-(4-chlorobenzyl)-8-(4-hydroxypiperidin-1-yl)-3-(propan-2-yl)pyrido[2,3-e][1,2,4]triazolo[4,3-c]pyrimidin-5(6H)-one]			IC50 (Table 9): 0.7 µM
CC1(C)CN=C2c3ncc(NCCO)cc3N(Cc3ccc(Cl)cc3)C(=O)N2C1 [Example 143, 5-(4-chlorobenzyl)-3-[(2-hydroxyethyl)amino]-9,9-dimethyl-5,8,9,10-tetrahydro-6H-pyrido[2,3-e]pyrimido[1,2-c]pyrimidin-6-one]			IC50 (Table 9): 2.26 µM
CCC1CN2C(=O)N(Cc3ccc(OC)cc3)c3cc(N4CCOCC4)cnc3C2=N1 (stereo not shown) [Example 52, 2-ethyl-6-(4-methoxybenzyl)-8-(morpholin-4-y1)-2,6-dihydroimidazo[1,2-c]pyrido[2,3-e]pyrimidin-5(3H)-one]	1.25		
CC(C)Cc1nnc2c3ncc(N4CCOCC4)cc3c(Cc3ccc(Cl)cc3)nn12 [Example 133, 6-(4-chlorobenzyl)-3-(2-methylpropyl)-8-(morpholin-4-yl)pyrido[2,3-d][1,2,4]triazolo[4,3-b]pyridazine]			IC50 (Table 8): 0.217 µM
COc1cc(CN2C(=O)N3CC(C)(C)N=C3c3ncc(N4CCOCC4)cc32)cc(OC)c1 [Example 161, 6-(3,5-dimethoxybenzyl)-2,2-dimethyl-8-(morpholin-4-yl)-2,6-dihydroimidazo[1,2-c]pyrido[2,3-e]pyrimidin-5(3H)-one]			IC50 (Table 9): 4.29 µM
CCc1nc2c3ncc(NCC4COC4)cc3n(Cc3cc(OC)cc(OC)c3)c(=O)n2c1C [Example 76, 6-(3,5-dimethoxybenzyl)-2-ethyl-3-methyl-8-{[(oxetan-3-yl)methyl]amino}imidazo[1,2-c]pyrido[2,3-e]pyrimidin-5(6H)-one]		0.381	
CCc1c(C)nc2c3ncc(NCC4COC4)cc3n(Cc3cc(OC)cc(OC)c3)c(=O)n12 [Example 77, 6-(3,5-dimethoxybenzyl)-3-ethyl-2-methyl-8-{[(oxetan-3-yl)methyl]amino}imidazo[1,2-c]pyrido[2,3-e]pyrimidin-5(6H)-one]		0.239	
COc1ccc(Cn2c(=O)n3c(COC4CCOCC4)nnc3c3ncc(N4CCOCC4)cc32)cc1 [Example 98, 6-(4-methoxybenzyl)-8-(morpholin-4-yl)-3-[(tetrahydro-2H-pyran-4-yloxy)methyl]pyrido[2,3-e][1,2,4]triazolo[4,3-c]pyrimidin-5(6H)-one]		0.897	
COc1ccc(CN2C(=O)N3C(=NC(=O)C3C(C)(C)C)c3ncc(N4CCOCC4)cc32)cc1 (stereo not shown) [Example 69, 3-tert-butyl-6-(4-methoxybenzyl)-8-(morpholin-4-yl)imidazo[1,2-c]pyrido[2,3-e]pyrimidine-2,5(3H,6H)-dione]	0.0983		
CCC1CN=C2c3ncc(N4CCOCC4)cc3N(Cc3ccc(OC)cc3)C(=O)N21 (stereo not shown) [Example 53, 3-ethyl-6-(4-methoxybenzyl)-8-(morpholin-4-y1)-2,6-dihydroimidazo[1,2-c]pyrido[2,3-e]pyrimidin-5(3H)-one]	2.07		
O=C1N(Cc2ccc(Cl)cc2)c2cc(N3CCOCC3)cnc2C2=NCC(C3CC3)N12 (stereo not shown) [Example 12, 6-(4-chlorobenzyl)-3-cyclopropyl-8-(morpholin-4-yl)-2,6-dihydroimidazo[1,2-c]pyrido[2,3-e]pyrimidin-5(3H)-one]	0.428		
COc1ccc(Cn2c(=O)n3c(CC(C)C)nnc3c3ncc(N4CCOCC4)cc32)cc1 [Example 104, 6-(4-methoxybenzyl)-3-(2-methylpropyl)-8-(morpholin-4-yl)pyrido[2,3-e][1,2,4]triazolo[4,3-c]pyrimidin-5(6H)-one]		0.734	
COc1cc(CN2C(=O)N3CC(C(C)C)N=C3c3ncc(NC4CCOCC4)cc32)cc(OC)c1 (stereo not shown) [Example 49, 6-(3,5-dimethoxybenzyl)-2-(propan-2-yl)-8-(tetrahydro-2H-pyran-4-ylamino)-2,6-dihydroimidazo[1,2-c]pyrido[2,3-e]pyrimidin-5(3H)-one]	0.872		
COc1cc(Cn2c(=O)n3cc(CC(C)C)nc3c3ncc(N4CCN(C(=O)CO)CC4)cc32)cc(OC)c1 [Example 80, 6-(3,5-dimethoxybenzyl)-8-[4-(hydroxyacetyl)piperazin-1-y1]-2-(2-methylpropyl)imidazo[1,2-c]pyrido[2,3-e]pyrimidin-5(6H)-one]		1.53	
COc1ccc(CN2C(=O)N3CC(CC(C)(C)C)N=C3c3ncc(N4CCOCC4)cc32)cc1 (stereo not shown) [Example 34, 2-(2,2-dimethylpropyl)-6-(4-methoxybenzyl)-8-(morpholin-4-y1)-2,6-dihydroimidazo[1,2-c]pyrido[2,3-e]pyrimidin-5(3H)-one]	0.408		
CC(C)Cc1cn2c(=O)n(Cc3ccc(Cl)cc3)c3cc(N4CC5(COC5)C4)cnc3c2n1 [Example 73, 6-(4-chlorobenzyl)-2-(2-methylpropyl)-8-(2-oxa-6-azaspiro[3.3]heptan-6-yl)imidazo[1,2-c]pyrido[2,3-e]pyrimidin-5(6H)-one]		0.917	
CCn1ccc(-c2nnc3c4ncc(N5CCOCC5)cc4n(Cc4ccc(Cl)cc4)c(=O)n23)n1 [Example 109, 6-(4-chlorobenzyl)-3-(1-ethyl-1h-pyrazol-3-yl)-8-(morpholin-4-yl)pyrido[2,3-e][1,2,4]triazolo[4,3-c]pyrimidin-5(6H)-one]		0.203	
Cc1c(C(C)C)nc2c3ncc(N4CCOCC4)cc3n(Cc3ccc(Cl)cc3)c(=O)n12 [Example 90]		0.332	
COc1ccc(CN2C(=O)N3C(=NCC3CC(C)C)c3ncc(N4CCOCC4)cc32)cc1 (stereo not shown) [Example 38, 6-(4-methoxybenzyl)-3-(2-methylpropyl)-8-(morpholin-4-yl)-2,6-dihydroimidazo[1,2-c]pyrido[2,3-e]pyrimidin-5(3H)-one]	2.04		
